Here are results for 25 compounds from patent US20240245658A1, “TAAR1 AND SEROTONIN MODULATORS, AND PHARMACEUTICAL COMPOSITIONS, AND METHODS OF USE THEREOF” (Sunovion Pharmaceuticals Inc., priority 2021, published 2024).

Each structure is given as a SMILES string. Like-named read-outs stand apart in the source and are kept apart here. Bounds are passed on as bounds.

Holding throughout (type): cell-based
One assay addresses T1, human TAAR1 receptors (Homo sapiens, UniProt Q96RJ0).
T1 construct: host or cells: CHO-K1
T1 sequence (Q96RJ0 1-339): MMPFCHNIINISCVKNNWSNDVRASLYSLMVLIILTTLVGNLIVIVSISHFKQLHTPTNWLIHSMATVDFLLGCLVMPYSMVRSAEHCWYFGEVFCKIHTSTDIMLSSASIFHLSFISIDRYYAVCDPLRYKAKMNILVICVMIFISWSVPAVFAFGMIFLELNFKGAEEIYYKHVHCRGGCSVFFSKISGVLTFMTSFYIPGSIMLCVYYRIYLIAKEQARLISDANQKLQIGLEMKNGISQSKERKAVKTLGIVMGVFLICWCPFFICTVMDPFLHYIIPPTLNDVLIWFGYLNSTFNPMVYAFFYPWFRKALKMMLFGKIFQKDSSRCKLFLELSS
In words: TAAR1 Agonism Assay: cAMP HTRF assay for Gs coupled receptor TAAR1 (Euroscreen FAST-0987C). Conditions: CHO-K1 cells expressing human TAAR1, cAMP HTRF. The gist of the method: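 cAMP accumulation detected by HTRF fluorescence ratio, reagents added in lysis buffer and incubated 1 h at about room temperature. Beforehand, cells (about 3,000 per well) sat with test compound at ten concentrations from 0.3 to 10,000 nM in duplicate for roughly 30 min at about room temperature; tyramine dose-response run alongside.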

Another assay addresses T2, human 5-HT7 receptor (Homo sapiens, UniProt P34969).
T2 construct: host or cells: CHO-K1
The assay can be described thus: 5HT7 Antagonism Assay (Euroscreen FAST-0499C), cAMP HTRF. The conditions noted are these: CHO-K1 cells expressing human 5-HT7, reference agonist at EC80, cAMP HTRF. The method, boiled down:
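CHO-K1 cells expressing human 5-HT7, 3000 per well in Krebs-Ringer HEPES with 1 mM IBMX, were exposed for 30 minutes at room temperature to compound plus reference agonist at its EC80. cAMP was read by HTRF after 1 hour; compounds were tested in duplicate from 0.3 to 10,000 nM.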

The target in another assay is T3, human 5-HT2A receptor (Homo sapiens, UniProt P28223).
T3 construct: host or cells: CHO-K1
The assay can be described thus: 5HT2A Antagonism Assay (Euroscreen FAST-05051), IP-One HTRF. The gist of the method: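 CHO-K1 cells expressing receptor, 20,000/well, co-incubated with test compound and reference agonist at its EC80 for 60 min at 37 °C. IP1 accumulation read by HTRF after ~1 h detection at room temperature. Compounds tested in duplicate at 0.3–10,000 nM.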

Where [1] appears, read: read-out: 5-HT2A (IC50), CHO-K1 cells expressing human 5-HT2A, reference agonist at EC80, IP-One.
The mark [2] stands for this setting: 5-HT2A (IC50), CHO-K1 cells expressing human 5-HT2A, reference agonist at EC80, IP-One.
Setting [3] is: CHO-K1 cells expressing human 5-HT2A, reference agonist at EC80, IP-One, read-out: 5-HT2A (IC50).

T3 sequence (P28223 whole entry): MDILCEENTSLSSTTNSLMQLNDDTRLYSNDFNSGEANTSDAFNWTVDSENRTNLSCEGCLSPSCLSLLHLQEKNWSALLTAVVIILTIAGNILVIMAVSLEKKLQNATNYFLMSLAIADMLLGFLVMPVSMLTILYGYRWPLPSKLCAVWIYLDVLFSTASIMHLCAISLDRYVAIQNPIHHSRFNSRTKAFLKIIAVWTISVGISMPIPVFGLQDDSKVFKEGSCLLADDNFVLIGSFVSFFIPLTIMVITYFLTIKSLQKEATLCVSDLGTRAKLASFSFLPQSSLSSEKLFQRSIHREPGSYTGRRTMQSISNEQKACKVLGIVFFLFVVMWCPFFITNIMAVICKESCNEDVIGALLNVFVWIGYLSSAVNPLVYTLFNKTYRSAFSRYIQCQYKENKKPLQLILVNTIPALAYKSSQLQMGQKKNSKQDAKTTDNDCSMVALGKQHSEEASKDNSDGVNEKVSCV
T2 sequence (P34969 whole entry): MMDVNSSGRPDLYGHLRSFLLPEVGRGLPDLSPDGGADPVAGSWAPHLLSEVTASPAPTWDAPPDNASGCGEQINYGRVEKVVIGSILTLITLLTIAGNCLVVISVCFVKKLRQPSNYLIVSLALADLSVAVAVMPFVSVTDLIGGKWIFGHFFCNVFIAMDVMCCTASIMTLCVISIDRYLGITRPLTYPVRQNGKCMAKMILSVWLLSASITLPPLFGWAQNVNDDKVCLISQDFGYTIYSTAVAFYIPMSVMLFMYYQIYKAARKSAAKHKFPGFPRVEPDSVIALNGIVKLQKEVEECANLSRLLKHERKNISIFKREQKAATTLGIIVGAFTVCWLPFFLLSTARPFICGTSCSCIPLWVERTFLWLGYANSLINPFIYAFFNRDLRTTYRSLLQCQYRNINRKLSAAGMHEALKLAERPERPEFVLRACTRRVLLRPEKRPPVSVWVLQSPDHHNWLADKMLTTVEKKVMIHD

Usually EC50 stands for the midpoint of the concentration-response curve. A higher EC50 goes with a need for much substance. The IC50 is the concentration needed to halve the response being measured. Turning to `NCC1Cc2c(F)cccc2Oc2ccccc21` (single isomer, unassigned) [Compound 81, (S*)-(1-fluoro-10,11-dihydrodibenzo[b,f]oxepin-10-yl)methanamine], the EC50 on human TAAR1 receptors was below 1000 nM. Besides, the IC50 at human 5-HT7 receptor was at least 10 µM; on human 5-HT2A receptor (setting [1]) it was below 1000 nM.
For `CNCC1Cc2ccccc2Oc2cccnc21` (single isomer, unassigned) [Compound 6, (R*)-1-(10,11-dihydrobenzo-[6,7]oxepino[3,2-b]pyridin-11-yl)-N-methylmethanamine], the EC50 on human TAAR1 receptors was below 1000 nM. For the same compound, the IC50 on human 5-HT7 receptor was at least 10 µM; at human 5-HT2A receptor (setting [2]), 1000 to 10000 nM.
`NCC1Cc2ncccc2Oc2ccc(F)cc21` (single isomer, unassigned) [Compound 164, (S*)-(8-fluoro-10,11-dihydrobenzo[6,7]oxepino[3,2-b]pyridin-10-yl)methanamine] showed an EC50 on human TAAR1 receptors below 1000 nM. The IC50 on human 5-HT7 receptor is at least 10 µM; at human 5-HT2A receptor (setting [1]), 1000 to 10000 nM.
In turn, `Cc1cccc2c1CC(CN)c1ncccc1O2` (single isomer, unassigned) [Compound 140, (S*)-(9-methyl-10,11-dihydrobenzo[6,7]oxepino[3,2-b]pyridin-11-yl)methanamine] had an EC50 at human TAAR1 receptors below 1000 nM. Moreover, the IC50 on human 5-HT7 receptor was at least 10 µM; on human 5-HT2A receptor (setting [2]), above 10000 nM.
`NCC1Oc2ccccc2Oc2ccncc21` (single isomer, unassigned) [Compound 54, (S*)-(11H-benzo[2,3][1,4]dioxepino[6,5-c]pyridin-11-yl)methanamine] displayed an EC50 at human TAAR1 receptors of 1000 to 10000 nM. Moreover, the values for the IC50 on human 5-HT7 receptor and at human 5-HT2A receptor (setting [3]) were at least 10 µM and above 10000 nM, respectively.
In turn, `NCC1Oc2ccccc2Oc2cnccc21` (single isomer, unassigned) [Compound 49, (R*)-(5H-benzo[2,3][1,4]dioxepino[5,6-c]pyridin-5-yl)methanamine] displayed an EC50 on human TAAR1 receptors of 1000 to 10000 nM. Also, the values for the IC50 at human 5-HT7 receptor and at human 5-HT2A receptor (setting [2]) were at least 10 µM and above 10000 nM, respectively.
Turning to `CNCC1Cc2ncccc2Oc2ccc(C#N)cc21` (single isomer, unassigned) [Compound 162, (S*)-10-((methylamino)methyl)-10,11-dihydrobenzo[6,7]oxepino[3,2-b]pyridine-8-carbonitrile], the EC50 at human TAAR1 receptors was above 10000 nM. Further, the IC50 on human 5-HT7 receptor is at least 10 µM; on human 5-HT2A receptor (setting [3]) it was 1000 to 10000 nM.
`NCC1Cc2ccccc2Oc2ccc(F)cc21` (single isomer, unassigned) [Compound 92, (R*)-(8-fluoro-10,11-dihydrodibenzo[b,f]oxepin-10-yl)methanamine]: the EC50 on human TAAR1 receptors is below 1000 nM. Besides, the IC50 at human 5-HT7 receptor is at least 10 µM; at human 5-HT2A receptor (setting [2]), below 1000 nM.
On human TAAR1 receptors, `NCC1Cc2ccccc2Oc2cccnc21` (single isomer, unassigned) [Compound 8, (R*)-(10,11-dihydrobenzo[6,7]oxepino[3,2-b]pyridin-11-yl)methanamine] registered an EC50 below 1000 nM. The IC50 is at least 10 µM on human 5-HT7 receptor and above 10000 nM at human 5-HT2A receptor (setting [1]).
In turn, `CNCC1Cc2cccnc2Oc2ccccc21` (single isomer, unassigned) [Compound 20, (S*)-1-(5,6-dihydrobenzo[6,7]oxepino[2,3-b]pyridin-6-yl)-N-methylmethanamine] displayed an EC50 on human TAAR1 receptors above 10000 nM. In addition, the IC50 is at least 10 µM on human 5-HT7 receptor and above 10000 nM on human 5-HT2A receptor (setting [3]).
In the case of `NCC1Cc2ccccc2Oc2c(F)cccc21` (single isomer, unassigned) [Compound 100, (R*)-(6-fluoro-10,11-dihydrodibenzo[b,f]oxepin-10-yl)methanamine], the EC50 on human TAAR1 receptors is below 1000 nM. Also, the IC50 is at least 10 µM at human 5-HT7 receptor and below 1000 nM on human 5-HT2A receptor (setting [2]).
Consider `NCC1Cc2ncccc2Oc2ccccc21` (single isomer, unassigned) [Compound 30, (S*)-(10,11-dihydrobenzo[6,7]oxepino[3,2-b]pyridin-10-yl)methanamine], for which the EC50 on human TAAR1 receptors is below 1000 nM. The IC50 is at least 10 µM on human 5-HT7 receptor and 1000 to 10000 nM at human 5-HT2A receptor (setting [1]).
The like results for `CNCC1Cc2cc(C)ccc2Oc2cccnc21` (single isomer, unassigned) [Compound 131, (R*)—N-methyl-1-(8-methyl-10,11-dihydrobenzo[6,7]oxepino[3,2-b]pyridin-11-yl)methanamine] were, in that order, below 1000 nM, below 1 µM and below 1000 nM.
For `CNCC1Cc2ccc(Cl)cc2Oc2cccnc21` (single isomer, unassigned) [Compound 127, (R*)-(7-chloro-10,11-dihydrobenzo[6,7]oxepino[3,2-b]pyridin-11-yl)-N-methylmethanamine] the same measures were below 1000 nM, 1 to 10 µM and below 1000 nM.
Regarding `NCC1Cc2cc(Cl)ccc2Oc2cccnc21` (single isomer, unassigned) [Compound 120, (S*)-(8-chloro-10,11-dihydrobenzo[6,7]oxepino[3,2-b]pyridin-11-yl)methanamine], at human TAAR1 receptors, the EC50 is below 1000 nM. In addition, the results for the IC50 at human 5-HT7 receptor and at human 5-HT2A receptor (setting [2]) were at least 10 µM and 1000 to 10000 nM, respectively.
`CCc1ccc2c(n1)C(CNC)Cc1ccccc1O2` (single isomer, unassigned) [Compound 152, (R*)-(2-ethyl-10,11-dihydrobenzo[6,7]oxepino[3,2-b]pyridin-11-yl)-N-methylmethanamine] had an EC50 at human TAAR1 receptors below 1000 nM. Also, the IC50 on human 5-HT7 receptor was 1 to 10 µM; on human 5-HT2A receptor (setting [2]), below 1000 nM.
`NCC1Cc2ccccc2Oc2cccc(F)c21` (single isomer, unassigned) [Compound 105, (S*)-(9-fluoro-10,11-dihydrodibenzo[b,f]oxepin-10-yl)methanamine] had an EC50 at human TAAR1 receptors of 1000 to 10000 nM. The results for the IC50 on human 5-HT7 receptor and at human 5-HT2A receptor (setting [2]) were at least 10 µM and above 10000 nM, respectively.
The like results for `Cc1cccc2c1CC(CN)c1ncccc1O2` (single isomer, unassigned) [Compound 141, (R*)-(9-methyl-10,11-dihydrobenzo[6,7]oxepino[3,2-b]pyridin-11-yl)methanamine] were, in that order, below 1000 nM, at least 10 µM and below 1000 nM.
In turn, `CNCC1Cc2ccccc2Oc2cc(F)ccc21` (single isomer, unassigned) [Compound 4, (S*)-1-(7-fluoro-10,11-dihydrodibenzo[b,f]oxepin-10-yl)-N-methylmethanamine] had an EC50 on human TAAR1 receptors below 1000 nM. Further, the IC50 was 1 to 10 µM at human 5-HT7 receptor and below 1000 nM at human 5-HT2A receptor (setting [1]).
On to `NCC1Cc2c(F)cncc2Oc2ccccc21` (single isomer, unassigned) [Compound 154, (S*)-(4-fluoro-5,6-dihydrobenzo[6,7]oxepino[2,3-c]pyridin-6-yl)methanamine], for which the EC50 on human TAAR1 receptors was above 10000 nM. The IC50 on human 5-HT7 receptor is at least 10 µM; at human 5-HT2A receptor (setting [2]), 1000 to 10000 nM.
For `Cc1ccc2c(c1)Oc1cccnc1C(CN)C2` (single isomer, unassigned) [Compound 132, (S*)-(7-methyl-10,11-dihydrobenzo[6,7]oxepino[3,2-b]pyridin-11-yl)methanamine] the same measures were below 1000 nM, at least 10 µM and above 10000 nM.
For `NCC1Oc2ccc(F)cc2Oc2ccccc21` (single isomer, unassigned) [Compound 41, (R*)-(7-fluoro-11H-dibenzo[b,e][1,4]dioxepin-11-yl)methanamine] the same measures were below 1000 nM, 1 to 10 µM and below 1000 nM.
In the case of `CNCC1Oc2ccccc2Oc2cccnc21` (single isomer, unassigned) [Compound 58, (R*)-1-(11H-benzo[2,3][1,4]dioxepino[6,5-b]pyridin-11-yl)-N-methylmethanamine], the EC50 on human TAAR1 receptors was below 1000 nM. Further, the IC50 at human 5-HT7 receptor fell in the range of 1 to 10 µM; at human 5-HT2A receptor (setting [1]), 1000 to 10000 nM.
With `CNCC1Cc2ncccc2Oc2cc(Cl)ccc21` (single isomer, unassigned) [Compound 174, (S*)-1-(7-chloro-10,11-dihydrobenzo[6,7]oxepino[3,2-b]pyridin-10-yl)-N-methylmethanamine], the EC50 at human TAAR1 receptors was above 10000 nM. Besides, the results for the IC50 at human 5-HT7 receptor and at human 5-HT2A receptor (setting [3]) were 1 to 10 µM and below 1000 nM, respectively.
On human TAAR1 receptors, `NCC1Cc2ncccc2Oc2cccc(F)c21` (single isomer, unassigned) [Compound 156, (S*)-(9-fluoro-10,11-dihydrobenzo[6,7]oxepino[3,2-b]pyridin-10-yl)methanamine] displayed an EC50 below 1000 nM. Also, the IC50 on human 5-HT7 receptor was at least 10 µM; on human 5-HT2A receptor (setting [2]) it was above 10000 nM.
